Measurements reported in US6187754A, “Sialyl-Lewisa and sialyl-Lewisx epitode analogues” (GlycoTech Corp., priority 1996, dated 2001).

Tests used:
[1] = Remark on solubility in NMR characterisation; assay type: physicochemical; conditions: CD3OD-D2O-CDCl3 (NMR solvent); no 13C NMR
[2] = Remark on oxidation sensitivity in NMR characterisation; assay type: physicochemical; conditions: no long-term 13C-NMR measurement

solubility [1]	SMILES	sensitivity to oxidation in organic solvents [2]
poor solubility	COC(=O)CCCCCCCCO[C@@H]1O[C@H](CO)[C@@H](O[C@@H]2O[C@H](CO)[C@H](O)[C@H](O[C@]3(C(=O)O)C[C@H](O)[C@@H](NC(C)=O)[C@H]([C@H](O)[C@H](O)CO)O3)[C@H]2O)[C@H](O)[C@H]1NC(=O)c1cnc2nc(N)nc(O)c2n1 [(59)]	
	COC(=O)CCCCCCCCO[C@@H]1O[C@H](CO)[C@@H](O)[C@H](O[C@@H]2O[C@H](CO)[C@H](O)[C@H](O[C@]3(C(=O)O)C[C@H](O)[C@@H](NC(C)=O)[C@H]([C@H](O)[C@H](O)CO)O3)[C@H]2O)[C@H]1NC(=O)c1ccc(O)c(O)c1 [(73)]	sensitivity of the compound to oxidation in organic solvents
